Experimental data reported in patent publication US20100098662A1, “TREATMENT OF LIVER DISEASES IN WHICH IRON PLAYS A ROLE IN PATHOGENESIS” (priority 2005, published 2010).

Assays:
[1] = test system: adult β-thalassemia patients; assay: Clinical dose-escalation trial of Compound I: iron balance and efficiency of chelation; assay type: in vivo, human
Description: (§1) A randomized, double-blind, placebo-controlled, dose-escalation trial of Compound I in 24 adult β-thalassemia patients in which the safety, tolerability, PK and cumulative iron balance of 12 days of Compound I are assessed (10 mg/kg (n=5), 20 mg/kg (n=6), 40 mg/kg (n=7), and placebo (n=6).
Efficiency of chelation is based on average daily net iron excretion, and is calculated as the ratio between […], relative to body weight. The theoretical amount of iron is obtained from the consideration that two molecules of Compound I are needed to chelate a single atom of iron. The molecular weight of Compound I being 373.4, and that of iron 55.85. The efficiency is therefore calculated as:
Efficiency=(Feexcr*2*373.4)/(DoseCompound×55.85)×100%) • DoseCompound and Feexcr are given in mg/kg body weight.

[2] = Clinical dose-escalation trial of Compound I: pharmacokinetics; assay type: in vivo, human
Description: as §1

[3] = test system: rare anemia patients (iron-overloaded); assay: ALT values of rare anemia patients after one year of treatment; assay type: in vivo, human
Description: (§2) Patients were iron-overloaded patients and were treated with different doses of Compound I for one year.
(§3) ALT was measured according to standard biomedical techniques, e.g. using the International Federation of Clinical Chemistry reference method as described in Brinkmann T, Dreier J, Diekmann J, Gotting C, Klauke R, Schumann G, Kleesiek K. Alanine aminotransferase cut-off values for blood donor screening using the new International Federation of Clinical Chemistry reference method at 37 degrees C. Vox Sang. 2003 85(3): 159-64.
(§4) The baseline ALT value is defined as the patient ALT value determined for the patient at the stage of enrollment in the clinical trial, i.e. the ALT baseline value is the ALT value of the patient before starting Compound I treatment.

[4] = test system: thalassemia patients (iron-overloaded); assay: ALT values of thalassemia patients after one year of treatment; assay type: in vivo, human
Description: as §2, §3, §4

[5] = test system: Long-Evans cinnamon (LEC) rat; assay: Spontaneous acute hepatitis in LEC rat model; assay type: in vivo; details: male LEC rats, oral 14 and 28 mg/kg/day
Description: Long-Evans cinnamon (LEC) rat is a mutant strain displaying hereditary hepatitis and spontaneous liver cancer. Compound I has been tested for efficacy on acute hepatitis in LEC rat model.
Methods: Compound I was administered orally to male LEC rats by gavage on does of 0, 14 and 28 mg/kg/day, starting at 6-week-old and continuing till 18-week-old. Each four rats were sacrificed on 9, 12, 14, 16 and 18-week-old in Compound I—treated groups and control group.
On sacrificing, peripheral blood was collected for monitoring the biochemical markers, including the serum alanine transaminase (ALT). Liver tissue were histologically examined.

O=C(O)c1ccc(-n2nc(-c3ccccc3O)nc2-c2ccccc2O)cc1 [Compound I, 4-[3,5-Bis-(2-hydroxyphenyl)-[1,2,4]-triazol-1-yl]benzoic acid]
Negative iron balance (average daily net iron excretion) ([1]; 10 mg/kg dose): approximately 0.127 mg/kg/day
efficiency of chelation ([1]; 10 mg/kg dose group): 16%
efficiency of chelation ([1]; 20 mg/kg): 22%
Negative iron balance (average daily net iron excretion) ([1]; 20 mg/kg dose): ~0.343 mg/kg/day
efficiency of chelation ([1]; 40 mg/kg): 15%
Negative iron balance (average daily net iron excretion) ([1]; 40 mg/kg dose): ~0.564 mg/kg/day
iron excretion ([1]; iron balance studies, almost entirely in the feces): dose-dependent increase
Exposure (Cmax and AUC) increase with dose ([2]; after single dose administration): slightly over-proportionally
Exposure (Cmax and AUC) increase with dose ([2]; during steady state): approximately proportional
half-life ([2]; human, blood, at steady state, read-out: mean elimination half-life t1/2): 12 to 13 h
absorption ([2]; β-thalassemia patients, 10, 20, 40 mg/kg, 12 days): rapidly absorbed
Mean of ALT ([3]; 5 mg/kg/day): 67.42 Units/liter
Mean of ALT ([3]; 10 mg/kg/day): 14.22 Units/liter
Mean of ALT ([3]; 20 mg/kg/day): −3.27 Units/liter
Mean of ALT ([3]; 30 mg/kg/day): −14.19 Units/liter
Mean of ALT ([4]; 5 mg/kg/day): 35.25 Units/liter
Mean of ALT ([4]; 10 mg/kg/day): 26.62 Units/liter
Mean of ALT ([4]; 20 mg/kg/day): 3.17 Units/liter
Mean of ALT ([4]; 30 mg/kg/day): −23.56 Units/liter
Hepatic iron accumulation assessed by Prussian blue staining vs control group [5]: markedly reduced
serum ALT level vs control group ([5]; at 18-week-old): significantly lower
